Experiments:
Assay in all cases: relative viability (nuclei count vs DMSO), 5 days (fraction); higher = more cells survive
JZL-184 + AZD7762 = compound: C1CN(CCC1C(C2=CC3=C(C=C2)OCO3)(C4=CC5=C(C=C4)OCO5)O)C(=O)OC6=CC=C(C=C6)[N+](=O)[O-] [JZL-184] + NC(=O)Nc1cc(-c2cccc(F)c2)sc1C(=O)N[C@H]1CCCNC1 [AZD7762] (partner 0.2 µM)
Summary of the method: (§1)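 Five library-drug doses in √10 steps were combined with a fixed anchor-drug dose, or a single drug was given alone, by pin tool to lung cancer cell lines in 1536-well plates the day after seeding. Nuclei were stained and counted after 5 days. Relative viability is the nuclei count in treated wells over that in vehicle wells, taken as the median of duplicate plates.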

JZL-184 + Linsitinib = compound: C1CN(CCC1C(C2=CC3=C(C=C2)OCO3)(C4=CC5=C(C=C4)OCO5)O)C(=O)OC6=CC=C(C=C6)[N+](=O)[O-] [JZL-184] + C[C@]1(O)C[C@@H](c2nc(-c3ccc4ccc(-c5ccccc5)nc4c3)c3c(N)nccn32)C1 [Linsitinib] (partner 1 µM)
Summary of the method: as §1

JZL-184 + Palbociclib = compound: C1CN(CCC1C(C2=CC3=C(C=C2)OCO3)(C4=CC5=C(C=C4)OCO5)O)C(=O)OC6=CC=C(C=C6)[N+](=O)[O-] [JZL-184] + CC(=O)c1c(C)c2cnc(Nc3ccc(N4CCNCC4)cn3)nc2n(C2CCCC2)c1=O [Palbociclib] (partner 0.5 µM)
Summary of the method: as §1

JZL-184 + Olaparib = compound: C1CN(CCC1C(C2=CC3=C(C=C2)OCO3)(C4=CC5=C(C=C4)OCO5)O)C(=O)OC6=CC=C(C=C6)[N+](=O)[O-] [JZL-184] + O=C(c1cc(Cc2n[nH]c(=O)c3ccccc23)ccc1F)N1CCN(C(=O)C2CC2)CC1 [Olaparib] (partner 8 µM)
Summary of the method: as §1

JZL-184 + Luminespib = compound: C1CN(CCC1C(C2=CC3=C(C=C2)OCO3)(C4=CC5=C(C=C4)OCO5)O)C(=O)OC6=CC=C(C=C6)[N+](=O)[O-] [JZL-184] + CCNC(=O)c1noc(-c2cc(C(C)C)c(O)cc2O)c1-c1ccc(CN2CCOCC2)cc1 [Luminespib] (partner 0.01 µM)
Summary of the method: as §1

Cell Line	relative viability (JZL-184 + AZD7762; first compound 0.04 µM)	relative viability (JZL-184 + AZD7762; first compound 0.4 µM)	relative viability (JZL-184 + AZD7762; first compound 1.265 µM)	relative viability (JZL-184 + AZD7762; first compound 4 µM)	relative viability (JZL-184 + Linsitinib; first compound 0.04 µM)	relative viability (JZL-184 + Linsitinib; first compound 0.4 µM)	relative viability (JZL-184 + Linsitinib; first compound 1.265 µM)	relative viability (JZL-184 + Linsitinib; first compound 4 µM)	relative viability (JZL-184 + Palbociclib; first compound 0.04 µM)	relative viability (JZL-184 + Palbociclib; first compound 0.4 µM)	relative viability (JZL-184 + Palbociclib; first compound 1.265 µM)	relative viability (JZL-184 + Palbociclib; first compound 4 µM)	relative viability (JZL-184 + Olaparib; first compound 0.04 µM)	relative viability (JZL-184 + Olaparib; first compound 0.4 µM)	relative viability (JZL-184 + Olaparib; first compound 1.265 µM)	relative viability (JZL-184 + Olaparib; first compound 4 µM)	relative viability (JZL-184 + Luminespib; first compound 0.04 µM)	relative viability (JZL-184 + Luminespib; first compound 0.4 µM)	relative viability (JZL-184 + Luminespib; first compound 1.265 µM)	relative viability (JZL-184 + Luminespib; first compound 4 µM)
201T	0.711	0.57	0.586	0.611	1.03	1.01	1.05	1.02	0.383	0.339	0.373	0.344	0.858	0.845	0.82	0.841	1.05	1.05	1.04	1.03
A-427	0.807	0.722	0.838	0.703	1.15	1.17	1.18	1.1	0.588	0.515	0.518	0.536	0.807	0.739	0.77	0.732	1.14	0.79	1.11	0.972
ABC-1			0.715	0.968	0.988	0.821	0.812	0.756	0.861	0.641	0.399	0.696	0.821	0.814	0.842	0.829	1.23	0.557	0.628	0.495
BEN	0.731	0.666	0.752	0.792	1.19	0.881	0.995	0.995	0.457	0.46	0.445	0.491	1.15	1.01	1.24	1.03	0.421	0.318	0.67	0.281
CAL-12T	0.712	0.531	0.7	0.613	1.06	0.775	0.828	0.75	0.692	0.314	0.508	0.576	0.836	0.701	0.786	0.777	0.478	0.449	0.849	0.395
COR-L23					1.15	0.926	0.92	0.837	0.337	0.234	0.287	0.273	0.379	0.365	0.315	0.4	0.776	0.7	0.781	0.642
COR-L 105					1.11	0.806	0.83	0.828	0.464	0.376	0.371	0.409	0.686	0.775	0.663	0.679	0.899	0.818	0.901	0.741
ChaGo-K-1	0.865	0.761	0.933	0.832					1	0.933	0.975	0.951	0.485	0.411	0.447	0.41	0.592	0.591	0.623	0.598
EKVX	0.732	0.688	0.793	0.645	0.987	1.01	0.948	0.937	0.436	0.331	0.323	0.371	0.851	0.778	0.769	0.834	0.795	0.71	0.944	0.863
EMC-BAC-2	1.16	1.11	1.14	1.08	0.855	0.793	0.791	0.784	0.584	0.458	0.508	0.512	0.473	0.479	0.491	0.492	1.26	1.11	1.24	1.09
EPLC-272H	0.194	0.186	0.211	0.302	1.19	1.11	1.35	1.14	0.331	0.314	0.326	0.297	0.68	0.613	0.805	0.778	0.242	0.241	0.886	0.84
H3255	0.945	0.743	0.948	0.86	1.05	0.917	1.09	0.892	0.353	0.322	0.343	0.323	0.614	0.574	0.587	0.481	1.03	0.765	1	0.938
HARA	0.126		0.43	0.379	0.97	0.869	0.935	0.994	0.25	0.204	0.273	0.238	0.762		0.762	0.947	0.808	0.739	1.03	0.757
HCC-78	0.594		0.688	0.618	0.355	0.513	0.535	0.474	0.425	0.425	0.452	0.471	0.823		0.831	0.768				
HCC-366	0.293	0.209	0.275	0.257	0.643	0.49	0.675	0.63	0.426	0.374	0.394	0.322	0.361	0.353	0.302	0.36				
IA-LM					1.06	0.529	0.607	0.554					0.987	0.737	0.827	0.82				

Cell Line	relative viability (JZL-184 + AZD7762; first compound 0.04 µM)	relative viability (JZL-184 + AZD7762; first compound 0.4 µM)	relative viability (JZL-184 + AZD7762; first compound 1.265 µM)	relative viability (JZL-184 + AZD7762; first compound 4 µM)	relative viability (JZL-184 + Linsitinib; first compound 0.04 µM)	relative viability (JZL-184 + Linsitinib; first compound 0.4 µM)	relative viability (JZL-184 + Linsitinib; first compound 1.265 µM)	relative viability (JZL-184 + Linsitinib; first compound 4 µM)	relative viability (JZL-184 + Palbociclib; first compound 0.04 µM)	relative viability (JZL-184 + Palbociclib; first compound 0.4 µM)	relative viability (JZL-184 + Palbociclib; first compound 1.265 µM)	relative viability (JZL-184 + Palbociclib; first compound 4 µM)	relative viability (JZL-184 + Olaparib; first compound 0.04 µM)	relative viability (JZL-184 + Olaparib; first compound 0.4 µM)	relative viability (JZL-184 + Olaparib; first compound 1.265 µM)	relative viability (JZL-184 + Olaparib; first compound 4 µM)	relative viability (JZL-184 + Luminespib; first compound 0.04 µM)	relative viability (JZL-184 + Luminespib; first compound 0.4 µM)	relative viability (JZL-184 + Luminespib; first compound 1.265 µM)	relative viability (JZL-184 + Luminespib; first compound 4 µM)
NCI-H520					1.15	0.929	0.926	0.897	0.189	0.221	0.223	0.219	0.39	0.369	0.351	0.304	0.222	0.226	0.239	0.209
NCI-H596	1.16	0.911	1.11	1.29	1.21	0.978	1.05	1.05					0.669	0.728	0.721	0.753	1.23	1.13	0.996	1.09
NCI-H661					0.542	0.477	0.712	0.521	0.408	0.378	0.399	0.403	0.825	0.712	0.731	0.748	0.969	0.898	0.938	0.975
NCI-H1563					1.24	1.31	1.21	1.09									0.513	0.571	0.535	0.511
NCI-H1650									0.395	0.368	0.408	0.302	0.867	0.72	0.87	0.74	0.225	0.207	0.216	0.178
NCI-H1703	0.106	0.117	0.129	0.112	0.893	0.765	0.738	0.305					0.521	0.434	0.576	0.426				
NCI-H2009					1.18	1.13	1.2	1.19	0.172	0.188	0.241	0.219	0.785	0.696	0.734	0.642	1.1	0.917	1.08	1.02
NCI-H2023					0.664	0.756	0.757	0.522	0.56	0.354	0.393	0.249	0.529	0.466	0.484	0.44	0.958	0.624	0.918	0.575
NCI-H2170	0.899	0.794	0.928	0.761					0.439	0.37	0.407	0.366	0.68	0.613	0.617	0.544	0.712	0.651	0.762	0.491
NCI-H2228					0.642	0.892	0.636	0.616	0.947	0.511	0.842	0.768	1.13	0.613	0.915	0.977	0.142	0.1	0.168	0.122
NCI-H2342	0.556	0.39	0.563	0.6					0.563	0.535	0.522	0.529	0.416	0.4	0.383	0.543	0.687	0.61	0.683	0.783
SK-LU-1					1.29	1.02	1.11	1.11	0.387	0.393	0.433	0.405	0.593	0.408	0.463	0.642	0.312	0.201	0.215	0.2
SK-MES-1					1.07	1.04	1.1	1.06	0.372	0.311	0.316	0.297	0.792	0.698	0.765	0.662	0.913	0.765	0.874	0.726
SW 900	0.573	0.756	0.627	0.594					0.548	0.513	0.558	0.521	0.966	0.858	0.844	0.898	0.16	0.18	0.18	0.196
SW 1573					0.856	0.833	0.781	0.814	0.458	0.328	0.45	0.383	0.68	0.351	0.454	0.479	0.224	0.276	0.251	0.222
UMC-11					1.43	0.935	1.09	0.944	0.327	0.339	0.366	0.35	0.349	0.333	0.308	0.354	1.26	0.992	1.05	1.04

Source: the supplement of paper PMC10307832
